We go through four compounds from article PMC6851324, “Design and development of stapled transmembrane peptides that disrupt the activity of G-protein–coupled receptor oligomers” (The Journal of Biological Chemistry, 2019).

The nature of one series: CD helicity measurements. The class given is physicochemical. As to conditions: 30–50 μM peptide in MilliQ water, 20 °C, 1-mm path length, three scans 195–260 nm, % helicity from molar ellipticity at 222 nm. On the procedure: Figure 4. Biophysical analysis of stapled peptides. A, amino acid sequence alignment of the targeted TM regions and disrupting peptides. Cys residues are in the reduced state. Blue bridges indicate the stapled amino acid residues. […] Yields, purity, and MALDI-TOF data are shown for the stapled peptides and negative control. B, CD analysis of 30–50 μM peptides at 20 °C. For proteolytic stability studies, the peptide solution (55.5 μM for trypsin and chymotrypsin and 11.1 μM for serum) was incubated in the presence of 0.55 μg/ml trypsin from porcine pancreas (E), α-chymotrypsin (F), or mouse serum (G) at 37 °C for the indicated times (indicated on the x axis). Data are mean ± S.E. (error bars) (n = 3) percentage of intact peptide normalized to t = 0. Proteolytic half-lives and putative cleavage sites (predicted using the Expasy bioinformatics server's model with a 50% probability of cleavage) are indicated at the bottom of each panel. Positive correlation between helicity and half-life in trypsin/chymotrypsin (C) or serum (D) was determined by two-tailed Pearson's correlation test. […]
CD spectra were recorded on a Jasco J-810 with a total of three scans from 195 to 260 nm in 0.5-nm increments. […]
The Jasco J-810 generates the raw output in ellipticity and is measured in millidegrees. […] Once the precise concentration was confirmed, the molar ellipticity [θ] was calculated as follows. […]
Where c is the sample concentration (μM), l is the path length (mm), n is the number of peptide bonds (calculated as amino acid residues − 1), and θobs is the observed ellipticity (millidegrees). […]

The target of series [1] is T1, trypsin from porcine pancreas (Sus scrofa, UniProt P00761).
T1 construct: purchased Sigma; host or cells: porcine pancreas
As to the kind of experiment: Proteolytic stability against trypsin. The series is classed as in vitro ADME. As to conditions: pig. How it is done:
(§1) Figure 4. Biophysical analysis of stapled peptides. A, amino acid sequence alignment of the targeted TM regions and disrupting peptides. Cys residues are in the reduced state. Blue bridges indicate the stapled amino acid residues. […] Yields, purity, and MALDI-TOF data are shown for the stapled peptides and negative control. B, CD analysis of 30–50 μM peptides at 20 °C. For proteolytic stability studies, the peptide solution (55.5 μM for trypsin and chymotrypsin and 11.1 μM for serum) was incubated in the presence of 0.55 μg/ml trypsin from porcine pancreas (E), α-chymotrypsin (F), or mouse serum (G) at 37 °C for the indicated times (indicated on the x axis). Data are mean ± S.E. (error bars) (n = 3) percentage of intact peptide normalized to t = 0. Proteolytic half-lives and putative cleavage sites (predicted using the Expasy bioinformatics server's model with a 50% probability of cleavage) are indicated at the bottom of each panel. Positive correlation between helicity and half-life in trypsin/chymotrypsin (C) or serum (D) was determined by two-tailed Pearson's correlation test. TEXT PRINTED IN THE PICTURE: (B) TM7-TAT: Ellipticity (%): 3.4 | (B) TM6-TAT: Ellipticity (%): 18.3 | (B) TM5-TAT: Ellipticity (%): 20.9 | (B) 8: Ellipticity (%): 58.3 | (B) 9: Ellipticity (%): 46.4 | (B) 10: Ellipticity (%): 36.8 | (B) 11: Ellipticity (%): 46 | (E) TM7-TAT: Half-life (min): 21; #Cleavage sites: 8 | (E) TM6-TAT: Half-life (min): 40; #Cleavage sites: 7 | (E) TM5-TAT: Half-life (min): 33; #Cleavage sites: 8 | (E) 8: Half-life (min): 307; #Cleavage sites: 0 | (E) 9: Half-life (min): 178; #Cleavage sites: 0 | (E) 10: Half-life (min): 75; #Cleavage sites: 6 | (E) 11: Half-life (min): 84; #Cleavage sites: 0 | (F) TM7-TAT: Half-life (min): 22; #Cleavage sites: 6 | (F) TM6-TAT: Half-life (min): 32; #Cleavage sites: 7 | (F) TM5-TAT: Half-life (min): 28; #Cleavage sites: 7 | (F) 8: Half-life (min): 425; #Cleavage sites: 4 | (F) 9: Half-life (min): 198; #Cleavage sites: 3 | (F) 10: Half-life (min): 63; #Cleavage sites: 2 | (F) 11: Half-life (min): 79; #Cleavage sites: 4 | (G) TM7-TAT: Half-life (hours): 0.46 | (G) TM6-TAT: Half-life (hours): 0.55 | (G) TM5-TAT: Half-life (hours): 0.81 | (G) 8: Half-life (hours): ≥18 | (G) 9: Half-life (hours): 14.7 | (G) 10: Half-life (hours): 11.7 | (G) 11: Half-life (hours): 5.3 DOUBTS OF THE COPYIST ABOUT THIS PICTURE: Panel A table (Yield, Rt, Purity, [M+H+] calc., [M+H+] Peak Found for 7-11) left out as synthesis and mass-spectrum characterisation data; uncertain whether [M+H+] calc. should count as a molecular weight
(§2) Dose–response curves were fitted using a four-parameter logistic nonlinear regression mode. Peptide stability data were fitted using a nonlinear regression mode for dissociation kinetics. All statistical tests, curve fitting, and graphing were performed using GraphPad Prism 8 (GraphPad Software, La Jolla, CA).
To 100 μl of peptide solution (100 μM, dissolved in ammonium bicarbonate buffer, pH 7.5), 60 μl of ammonium bicarbonate buffer (pH 7.5) was added, together with 20 μl of temperature-equilibrated (37 ± 1 °C) trypsin (5 μg/ml) from porcine pancreas (Sigma, 13,000–20,000 BAEE units/mg of protein). Peptides were incubated for 15, 30, 60, 120, 240, and 480 min, and then MeOH (HPLC Grade) + 0.05% TFA was added. The samples were then centrifuged (15,000 rpm), and the supernatant was analyzed, using Fmoc-Gly (10 μl, 0.2 mM) as an internal standard. The digestion at each time point was repeated three times to give the average values along with S.D. The amount of intact peptide that remained in the mixture was quantified by RP-HPLC. The experiment was repeated twice on different days.

Series [2] deals with T2, α-chymotrypsin from bovine pancreas (Bos taurus, UniProt P00766, DEL14-15/DEL147-148).
T2 construct: purchased Sigma Type II; host or cells: bovine pancreas
As to the kind of experiment: Proteolytic stability against chymotrypsin. The series is classed as in vitro ADME. Conditions: cattle. How it is done: as §1, §2
To 100 μl of peptide solution (100 μM, dissolved in ammonium bicarbonate buffer, pH 7.5), 60 μl of ammonium bicarbonate buffer (pH 7.5) was added, together with 20 μl of temperature-equilibrated (37 ± 1 °C) α-chymotrypsin (5 μg/ml) from bovine pancreas (Sigma, Type II, activity > 40 units/mg protein). Peptides were incubated for 15, 30, 60, 120, 240, and 480 min, and then MeOH (HPLC grade) + 0.05% TFA was added. The samples were then centrifuged (15,000 rpm), and supernatant was analyzed in a similar manner as described above. The experiment was repeated twice on different days.

[3] abbreviates: isolated enzyme trypsin, 55.5 μM peptide, 0.55 μg/ml trypsin from porcine pancreas, ammonium bicarbonate buffer pH 7.5, 37 °C, 15–480 min, intact peptide by RP-HPLC (Fmoc-Gly internal standard), n = 3, nonlinear regression fit, read-out: Half-life (min), trypsin.
The mark [4] stands for this setting: isolated enzyme chymotrypsin, 55.5 μM peptide, 0.55 μg/ml α-chymotrypsin from bovine pancreas, ammonium bicarbonate buffer pH 7.5, 37 °C, 15–480 min, intact peptide by RP-HPLC, n = 3, nonlinear regression fit, read-out: Half-life (min), α-chymotrypsin.

Where two headings read alike, the source gives them in different places. Where a SMILES comes first, the peptide text is derived from it. Bridges are numbered along the chain shown (N, C = ends). Where no end group is shown, it is not given here. [ ]: non-standard residue; d: D form. S5 = C=CCCC[C@](C)(N)C(=O)O; Nle = CCCC[C@H](N)C(=O)O Where only a bound is given, the exact number is not on record here.

T1 sequence (P00761 9-231): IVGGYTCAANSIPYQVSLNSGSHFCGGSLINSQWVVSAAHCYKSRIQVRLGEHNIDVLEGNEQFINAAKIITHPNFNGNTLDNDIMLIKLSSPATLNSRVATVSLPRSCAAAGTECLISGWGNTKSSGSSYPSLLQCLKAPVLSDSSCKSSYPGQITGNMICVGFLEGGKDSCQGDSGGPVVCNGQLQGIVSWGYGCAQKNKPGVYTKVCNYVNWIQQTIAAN

As usually defined, the half-life is the time in which the quantity being followed falls by half. Take `CCCC[C@H](NC(=O)[C@]1(C)CCC/C=C\CCC[C@](C)(NC(=O)[C@H](Cc2ccccc2)NC(=O)[C@H](CC(C)C)NC(=O)[C@H](CC(C)C)NC(=O)[C@H](CC(C)C)NC(=O)[C@@H](N)C(C)C)C(=O)N[C@@H](C(C)C)C(=O)N[C@@H](Cc2ccc(O)cc2)C(=O)N[C@@H](C)C(=O)N1)C(=O)N[C@@H](Cc1ccc(O)cc1)C(=O)N[C@H](C(=O)N[C@@H](CC(C)C)C(=O)N[C@@H](Cc1c[nH]c2ccccc12)C(N)=O)[C@@H](C)CC` [Peptide 8] (H-VLLLF[S5]VYA[S5][Nle]YILW-NH2; staple (Z) 6-10): the “Ellipticity (%) (helicity by CD)” value in “CD helicity measurements” was 58.3%. Further, the half-life at 55.5 μM in series [1] (trypsin from porcine pancreas, pH 7.5, trypsin 0.55 μg/ml, 37 °C, pH 7.5, approximate value of running text, read-out: half-life in trypsin as stated in text (converted)) is about 300 min; in series [1] (55.5 μM peptide, 0.55 μg/ml trypsin from porcine pancreas, ammonium bicarbonate buffer pH 7.5, 37 °C, 15–480 min, intact peptide by RP-HPLC (Fmoc-Gly internal standard), n = 3, nonlinear regression fit, read-out: Half-life (min), trypsin), 307 min; in series [2] (55.5 μM peptide, 0.55 μg/ml α-chymotrypsin from bovine pancreas, ammonium bicarbonate buffer pH 7.5, 37 °C, 15–480 min, intact peptide by RP-HPLC, n = 3, nonlinear regression fit, read-out: Half-life (min), α-chymotrypsin), 425 min.

With `C=CCCC[C@](C)(NC(=O)[C@H](Cc1ccc(O)cc1)NC(=O)[C@@H](N)C(C)C)C(=O)N[C@@H](Cc1ccc(O)cc1)C(=O)N[C@@H](CCCC)C(=O)N[C@@](C)(CCCC=C)C(=O)N[C@H](C(=O)N[C@@H](CC(C)C)C(=O)N[C@@H](Cc1c[nH]c2ccccc12)C(N)=O)[C@@H](C)CC` [Peptide 11] (H-VY[S5]Y[Nle][S5]ILW-NH2), the “Ellipticity (%) (helicity by CD)” value in “CD helicity measurements” is on record as 46.0%. For the same compound, the half-life at 55.5 μM worked out at 84 min in series [1] (isolated enzyme trypsin, pH 7.5, Half-life (min), trypsin) and 79 min in series [2] (isolated enzyme chymotrypsin, pH 7.5).

Consider “ETYLMFWIGVTSVLLLFIVYAYMYILWGRKKRRQRRR [TM5-TAT, reference compound]”, for which, in “CD helicity measurements” (listed as CB1 TM5-TAT), the “Ellipticity (%) (helicity by CD)” value is listed as under 20%. The half-life at 55.5 μM in series [1] (setting [3]) amounted to 33 min; in series [2] (setting [4]), 28 min.

As to “GRKKRRQRRRKTLVLILVVLIICWGPLLAIMVY [TM6-TAT, reference compound]”, the “Ellipticity (%) (helicity by CD)” value in “CD helicity measurements” is under 20%. Further, the half-life at 55.5 μM in series [1] (setting [3]) was 40 min; in series [2] (setting [4]) it was 32 min.
